Measurements from PubChem BioAssay (NCI).
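1) Cells in 96-well plates. 2) Compound, 48 h, 5 concentrations. 3) Linear interpolation between surrounding doses. 4) Unreached endpoint = highest concentration. GI50: concentration for 50% inhibition of growth. Definition used: TGI = concentration required for complete inhibition of growth.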

Tests used:
Assay in all cases: inhibition of tumour cell growth, NCI panel, 48 h
UACC-62 melanoma = system: UACC-62 melanoma
NCI-H226 lung = system: NCI-H226 lung
OVCAR-8 ovarian = system: OVCAR-8 ovarian
M14 melanoma = system: M14 melanoma
NCI-H460 lung = system: NCI-H460 lung
NCI/ADR-RES ovarian = system: NCI/ADR-RES ovarian
COLO 205 colon = system: COLO 205 colon
OVCAR-5 ovarian = system: OVCAR-5 ovarian
SW-620 colon = system: SW-620 colon
SF-268 CNS = system: SF-268 CNS
U251 CNS = system: U251 CNS
SNB-19 CNS = system: SNB-19 CNS
DU-145 prostate = system: DU-145 prostate
MALME-3M melanoma = system: MALME-3M melanoma
A498 renal = system: A498 renal
EKVX NSCLC = system: EKVX NSCLC
HCC-2998 colon = system: HCC-2998 colon
MOLT-4 leukemia = system: MOLT-4 leukemia
HL-60(TB) leukemia = system: HL-60(TB) leukemia
NCI-H23 lung = system: NCI-H23 lung
SR leukemia = system: SR leukemia
HS 578T breast = system: HS 578T breast
CCRF-CEM leukemia = system: CCRF-CEM leukemia
SN12C renal = system: SN12C renal
HOP-92 NSCLC = system: HOP-92 NSCLC
TK-10 renal = system: TK-10 renal
MCF7 breast = system: MCF7 breast
SK-MEL-5 melanoma = system: SK-MEL-5 melanoma
SF-539 CNS = system: SF-539 CNS
CAKI-1 renal = system: CAKI-1 renal
KM12 colon = system: KM12 colon
786-0 renal = system: 786-0 renal
HT29 colon = system: HT29 colon
ACHN renal = system: ACHN renal
MDA-N = system: MDA-N
LOX IMVI melanoma = system: LOX IMVI melanoma
SF-295 CNS = system: SF-295 CNS
OVCAR-3 ovarian = system: OVCAR-3 ovarian
RPMI-8226 leukemia = system: RPMI-8226 leukemia
HCT-15 colon = system: HCT-15 colon
PC-3 prostate = system: PC-3 prostate
A549 NSCLC = system: A549 NSCLC
HCT-116 colon = system: HCT-116 colon
MDA-MB-231 breast = system: MDA-MB-231 breast
UO-31 renal = system: UO-31 renal
NCI-H522 lung = system: NCI-H522 lung
SK-OV-3 ovarian = system: SK-OV-3 ovarian
SK-MEL-28 melanoma = system: SK-MEL-28 melanoma
HOP-62 NSCLC = system: HOP-62 NSCLC
K-562 leukemia = system: K-562 leukemia
BT-549 breast = system: BT-549 breast
MDA-MB-435 = system: MDA-MB-435
IGROV1 ovarian = system: IGROV1 ovarian
T-47D breast = system: T-47D breast
UACC-257 melanoma = system: UACC-257 melanoma
RXF 393 renal = system: RXF 393 renal
SK-MEL-2 melanoma = system: SK-MEL-2 melanoma
SNB-75 CNS = system: SNB-75 CNS
OVCAR-4 ovarian = system: OVCAR-4 ovarian

O=C(Nc1cccc2nsnc12)c1cc2c(cc1Cl)Sc1nccn1S2(=O)=O
TGI (UACC-62 melanoma): 17.6 µM
TGI (NCI-H226 lung): 55.4 µM
TGI (OVCAR-8 ovarian): 8.94 µM
TGI (M14 melanoma): 42.5 µM
TGI (NCI-H460 lung): 5.98 µM
TGI (NCI/ADR-RES ovarian): 42.6 µM
TGI (COLO 205 colon): 33.3 µM
TGI (OVCAR-5 ovarian): > 91.6 µM
TGI (SW-620 colon): > 60.7 µM
TGI (SF-268 CNS): 20.4 µM
TGI (U251 CNS): 17.6 µM
TGI (SNB-19 CNS): 24.8 µM
GI50 (DU-145 prostate): 1.74 µM
TGI (DU-145 prostate): 3.17 µM
TGI (MALME-3M melanoma): > 100 µM
TGI (A498 renal): 26.5 µM
TGI (EKVX NSCLC): 11.1 µM
TGI (HCC-2998 colon): 11.7 µM
TGI (MOLT-4 leukemia): > 30.7 µM
TGI (HL-60(TB) leukemia): 3.72 µM
TGI (NCI-H23 lung): 25.3 µM
TGI (SR leukemia): > 21.8 µM
TGI (HS 578T breast): > 100 µM
TGI (CCRF-CEM leukemia): > 36.6 µM
TGI (SN12C renal): 31.1 µM
TGI (HOP-92 NSCLC): 25.2 µM
TGI (TK-10 renal): 16.3 µM
TGI (MCF7 breast): 3.4 µM
TGI (SK-MEL-5 melanoma): 38.5 µM
TGI (SF-539 CNS): 10 µM
TGI (CAKI-1 renal): 25.7 µM
TGI (KM12 colon): 4.65 µM
TGI (786-0 renal): 32 µM
TGI (HT29 colon): 7.67 µM
TGI (ACHN renal): 35.9 µM
TGI (MDA-N): 34.3 µM
TGI (LOX IMVI melanoma): > 63.8 µM
TGI (SF-295 CNS): 28.2 µM
TGI (OVCAR-3 ovarian): 3.47 µM
TGI (RPMI-8226 leukemia): 4.96 µM
TGI (HCT-15 colon): 25.6 µM
TGI (PC-3 prostate): 3.64 µM
TGI (A549 NSCLC): 56.1 µM
TGI (HCT-116 colon): 6.97 µM
TGI (MDA-MB-231 breast): 21.9 µM
TGI (UO-31 renal): 4.41 µM
TGI (NCI-H522 lung): 32.3 µM
TGI (SK-OV-3 ovarian): > 100 µM
TGI (SK-MEL-28 melanoma): 8.86 µM
TGI (HOP-62 NSCLC): 4.37 µM
TGI (K-562 leukemia): > 44.5 µM
TGI (BT-549 breast): 36.9 µM
TGI (MDA-MB-435): 36.5 µM
TGI (IGROV1 ovarian): 46.6 µM
TGI (T-47D breast): 7.04 µM
TGI (UACC-257 melanoma): 3.49 µM
TGI (RXF 393 renal): 18 µM
TGI (SK-MEL-2 melanoma): 26.4 µM
TGI (SNB-75 CNS): 35.9 µM
TGI (OVCAR-4 ovarian): 15.6 µM
